Results on two compounds are retold here after US5869514A, “Terpenoidic derivatives useful as antitumor agents” (Pharmacia & Upjohn S.p.A., priority 1995, dated 1999).

The subject of experiment [1] is L1210 murine leukemia cell line. Description: Cell cultures and drug sensitivity assay (inhibition of cell growth, cell counting). The class given is cell-based. The note with it: Mus musculus; L1210 cells, 48 h treatment; read-out: ID50 (nM) L1210. How it is done:
(§1) (b) Cell Cultures and Drug Sensitivity Assay
(§2) L1210 and L1210/DX (Doxorubicin resistant) murine leukemia cell lines were grown in vitro as a stationary suspension culture in RPMI 1640 medium (GIBCO, Grand island, N.Y.) supplemented with 10% fetal calf serum (Flow, Irwine, UK), 2 mM L-glutamine (Gibco Europe, Glasgow, UK), 10 μM β-mercaptoethanol, 100 Units/ml penicillin and 100 μg/ml streptomycin.
(§3) Exponentially growing cells were seeded (1×10^5 cell/ml) in 12-well/plates (Costar, Cambridge, Mass.) and various concentrations of tested compounds were added immediately after seeding.
(§4) The plates were incubated at 37° C. in a humidified, 5% CO2 atmosphere for 48 hr.
(§5) Inhibition of cell growth was evaluated by counting surviving cells in a ZBI Coulter Counter (Hialeah, Fla.). The 50% inhibitory concentration (IC50) was calculated on the derived concentration-response curve. For each tested compound concentration, duplicate cultures were used.

Experiment [2] relates to L1210/DX (Doxorubicin resistant) murine leukemia cell line. Nature of the experiment: Cell cultures and drug sensitivity assay (inhibition of cell growth, cell counting), Doxorubicin resistant cells. The class given is cell-based. The settings on record: for R.I: L1210/DX versus L1210, 48 h treatment; for IC50: Mus musculus, L1210/DX cells (Doxorubicin resistant), 48 h treatment, read-out: ID50 (nM) L1210/DX. How it is done: as §1, §2, §3, §4, §5

The test system of the next experiment is Calf brain tubulin. Description: Tubulin assembly test (repolymerization in presence of CaCl2, turbidity at 340 nm). The settings on record: tubulin 1 mg/ml, 1 mM GTP, after 4 mM CaCl2. The class given is biochemical. How it is done: (a) Tubulin Assembly Test
Calf brain tubulin was prepared by two cycles of assembly-disassembly (Shelanski M. L., Gaskin F. and Cantor C. R., Proc. Natl.Acad.Sci. U.S.A. 70, 765-768, 1973; and stored in liquid nitrogen in MAB (0.1M MES, 2.5 mM EGTA, 0.5 mM MgSO4, 0.1 mM EDTA, 0.1 mM DTT, pH 6.4).
All the experiments were carried out on protein stored for less than 4 weeks.
Before each experiment, tubulin was kept 30 min at 4° C. Assembly was monitored by the method of Gaskin et al. (Gaskin F., Cantor C. R. and Shelanski M. L., J.Molec.Biol. 89, 737-758, 1974).
The cuvette (1 cm path) containing tubulin (1 mg/ml) and 1 mM GTP was shifted to 37° C. and continuous turbidity measurements were made at 340 nm on a Perkin-Elmer 557 double wavelength, double beam spectrophotometer equipped with an automatic recorder and a thermostatically regulated sample chamber.
After 30 minutes, 4 mM CaCl2 was added and depolymerisation was measured for 10 minutes as decreased turbidity.
At regular intervals of 15 minutes scaled doses of the tested compounds were added and variations in the turbidity were monitored.
Data are expressed as percentage of repolymerization induced by the tested compounds.

On to `COC(=O)C1=CC2C(CC(OC(=O)C=Cc3cn(C)cn3)C3(C)C=CC1(O)O3)C(C)=CC(O)C2C(C)C` (single isomer, unassigned; (-)) [Sarcodictyin C], for which the IC50 in experiment [1] was 408 ± 21.3 nM; in experiment [2], 5790 ± 183 nM. The compound further had a R.I in experiment [2] of 14.2. The “tubulin assembly (%) (percentage of repolymerization induced by the tested compound)” value with Calf brain tubulin (dosage 3.9 μM) is 112%; with Calf brain tubulin (dosage 39 μM) it was 173%.
Turning to `COC(=O)C1=CC2C(CC(OC(=O)C=Cc3cn(C)cn3)C3(C)C=CC1(O)O3)C(C)=CCC2C(C)C` (single isomer, unassigned; (-)) [Sarcodictyin A], the IC50 is 539 ± 97.7 nM in experiment [1] and 754 ± 80.3 nM in experiment [2]. This compound displayed a R.I in experiment [2] of 1.4. Further, the “tubulin assembly (%) (percentage of repolymerization induced by the tested compound)” value in the experiment with Calf brain tubulin (dosage 4 μM) is reported as 70%; in the experiment on Calf brain tubulin (dosage 40 μM), 162%.
